Source: patent publication US20130209359A1, “Small Peptides Specifically Bind to Colorectal Cancers” (The Johns Hopkins University, priority 2007, published 2013)

Experiments:
Format in all cases: cell-based
[1] = test system: HCT116 colon adenocarcinoma cells; experiment: Binding of 32P-labeled decapeptides to cell lines; settings: two-hour incubation, washes; average
Protocol: (§1) Assay of the binding of ^32P-labeled decapeptides to cell lines: Cell lines were grown in complete medium containing 10% bovine fetal serum (heat inactivated). In each well of a 96-well plate, 10,000 cells from various cell lines were grown overnight in complete medium. Ten μl of the labeled-peptide in 1×PBS and 90 μl of complete medium were added to each well and incubated at 37° C. at various times of up to two hours. The peptide-medium was removed and one μl added to 100 ul gel loading buffer and counted by scintillation counting for the probe control or run on a polyacrylamide-SDS gel (Biorad). The adherent cells were briefly and gently washed with complete medium three times and some wells were assayed immediately by adding 100 μl of gel loading buffer to each well and run on a gel or counted in a scintillation counter. Other wells had 100 μl complete medium added and incubated for a further time period. Samples were either counted in a liquid scintillation counter or run on polyacrylamide-SDS gels, exposed to x-ray film, and the film developed.

[2] = test system: human embryonic kidney cell line 293H; experiment: Binding of 32P-labeled decapeptides to cell lines; settings: two-hour incubation, washes
Protocol: as §1

[3] = test system: eleven nonbinding cell lines; experiment: Binding of 32P-labeled decapeptides to cell lines
Protocol: as §1

[4] = test system: Caco-2 colon adenocarcinoma cell line; experiment: Binding of 32P-labeled decapeptides to cell lines
Protocol: as §1

[5] = test system: HT1080 fibrosarcoma cells; experiment: Binding of 32P-labeled decapeptides to cell lines; settings: two-hour incubation, washes
Protocol: as §1

[6] = test system: HeLa S3 cervical cancer cells; experiment: Binding of 32P-labeled decapeptides to cell lines; settings: two-hour incubation, washes; average
Protocol: as §1

[7] = test system: colon adenocarcinoma cell lines (Caco-2, HCT15, HCT116, LoVo, HT29); experiment: Binding and overnight release/retention of 32P-labeled decapeptide; settings: two-hour incubation
Protocol: as §1

[8] = two hours incubation, three wash steps, overnight incubation in medium

GSRRASVASA (synthetic or recombinant sequence) [MA5]
32P counts per minute (cpm) remaining bound [1]: 131,998 cpm per 10,000 cells | 32P counts per minute (cpm) remaining bound [2]: 429 cpm per 10,000 cells | average cpm of the eleven nonbinding cell lines ([3]; two-hour incubation, 10,000 cells, washed three times): 365 cpm | mean cpm values of blank wells and nonbinding cell lines ([3]; two-hour incubation, washes): less than 550 cpm | retained counts per hour per cell ([4]; after overnight incubation): 348 counts per hour, per cell | retained counts extrapolated per cell per day ([4]; after overnight incubation, extrapolated): over 8,300 counts per cell per day | percentage of the total radioactive counts present in the incubation well retained by cells ([4]; after two-hour incubation): approximately 18% | time to plateau of 32P-peptide release into medium ([4]; after washing): ≤ 24 h | retained counts per cell extrapolated over a potential 2-week exposure period ([4]; extrapolated over 2 weeks): over 87,000 counts per cell | time by which the majority of total released counts are released ([4]; release after washing over a 48-hour time period): released by nine hours of incubation | cpm retained by cells after overnight incubation ([4]; triplicate wells containing 10,000 cells each, three washes, overnight at 37 C): 58,305 cpm | relative binding among decapeptides (in words) ([4]; two hour incubation): most efficient binding decapeptide | radioactive dose transferred per cell ([4]; two hour incubation, wash, immediate determination of retained radioactivity): over 29 counts per minute per cell | originally retained 32P isotope released [4, 8]: 88% | originally retained 32P isotope retained by cells [4, 8]: 12% | retention difference between decapeptide variants ([4]; two hours' incubation, variant MA2 vs. variant MA5): 70 fold | 32P counts per minute (cpm) remaining bound ([4]; two-hour incubation, washes with complete medium, average of triplicate wells): 298,639 cpm per 10,000 cells | 32P counts per minute (cpm) remaining bound [5]: 367 cpm | 32P counts per minute (cpm) remaining bound [6]: 534 cpm per 10,000 | retention of radioactivity (in words) ([7]; five of sixteen cell lines): very strong retention of radioactivity | initially retained radioactive counts retained by cells ([7]; washes, overnight incubation): approximately 12%
